One data set deals with T1, c-Kit(V654A) (Homo sapiens, UniProt P10721, V654A).
T1 construct: recombinant human c-Kit, amino acids 544-end containing the V654A mutation; GST (N)
Description: c-Kit(V654A) assay (33P-ATP filter binding kinase assay). As to conditions: recombinant human c-Kit aa 544-end V654A, ATP 200 μM. Format: biochemical. Summed up:
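Radiometric filter-binding read-out: substrate 33P incorporation counted by scintillation after P30 filtermat washes in 75 mM phosphoric acid and methanol. Enzyme: N-GST recombinant human c-Kit aa 544-end carrying V654A.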

For data set [1], the target named is T2, GIST430/654 cell line expressing mutated constitutively active cKIT receptor tyrosine kinase (Δ560-576 deletion and V654A point mutation) (Homo sapiens, UniProt P10721, DEL560-576/V654A).
T2 construct: endogenous in cells; host or cells: GIST430/654 cells
T2 sequence (P10721 with tags, fused parts or gaps DEL560-576/V654A): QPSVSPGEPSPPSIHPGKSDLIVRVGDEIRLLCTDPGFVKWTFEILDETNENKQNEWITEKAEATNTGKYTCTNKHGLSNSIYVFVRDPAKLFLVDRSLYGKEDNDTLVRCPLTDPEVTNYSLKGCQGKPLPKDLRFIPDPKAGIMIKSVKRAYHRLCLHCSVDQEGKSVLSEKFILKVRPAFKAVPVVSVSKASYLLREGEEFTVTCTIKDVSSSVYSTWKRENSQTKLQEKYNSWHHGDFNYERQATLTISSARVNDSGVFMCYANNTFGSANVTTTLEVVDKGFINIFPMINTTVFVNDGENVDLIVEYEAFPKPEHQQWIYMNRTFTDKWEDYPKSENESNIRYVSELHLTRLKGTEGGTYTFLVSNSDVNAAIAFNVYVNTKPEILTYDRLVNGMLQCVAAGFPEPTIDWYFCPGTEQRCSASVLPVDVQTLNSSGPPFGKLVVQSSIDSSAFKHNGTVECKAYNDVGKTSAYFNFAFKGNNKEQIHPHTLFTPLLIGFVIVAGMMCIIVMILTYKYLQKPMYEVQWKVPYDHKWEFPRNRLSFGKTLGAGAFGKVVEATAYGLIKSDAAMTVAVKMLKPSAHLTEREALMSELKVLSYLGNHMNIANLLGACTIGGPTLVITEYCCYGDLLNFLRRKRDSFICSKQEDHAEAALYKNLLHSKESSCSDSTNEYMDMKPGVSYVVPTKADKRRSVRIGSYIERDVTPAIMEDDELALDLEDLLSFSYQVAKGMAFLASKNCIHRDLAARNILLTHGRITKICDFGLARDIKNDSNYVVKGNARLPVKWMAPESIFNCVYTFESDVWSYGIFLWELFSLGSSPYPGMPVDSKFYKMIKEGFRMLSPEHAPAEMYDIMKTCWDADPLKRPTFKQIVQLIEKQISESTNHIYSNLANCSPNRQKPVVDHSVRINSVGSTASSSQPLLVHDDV
The data set can be described thus: Cellular cKIT autophosphorylation (phospho-Y307-cKIT, Luminex bead assay) in GIST430/654 cells. The format is cell-based. The conditions noted are these: compounds 45 min, read-out: GIST 430/654 IC50. Summed up:
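GIST430 (Δ560-576) and imatinib-resistant GIST430/654 (plus V654A; grown with 100 nM imatinib) cells were plated in IMDM/15% FCS and treated next day with serially diluted compound for 45 min. Lysates were captured on anti-total-cKIT Luminex beads overnight at 4 °C and probed for phospho-Y307. IC50 was taken from percent of 0.3% DMSO control.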

A short description of data set [2]: Determination of Efflux-Ratio (ER) in Caco-2 cells. The conditions noted are these: human, Caco-2, pH 7.4.

T1 sequence (P10721 544-976 V654A): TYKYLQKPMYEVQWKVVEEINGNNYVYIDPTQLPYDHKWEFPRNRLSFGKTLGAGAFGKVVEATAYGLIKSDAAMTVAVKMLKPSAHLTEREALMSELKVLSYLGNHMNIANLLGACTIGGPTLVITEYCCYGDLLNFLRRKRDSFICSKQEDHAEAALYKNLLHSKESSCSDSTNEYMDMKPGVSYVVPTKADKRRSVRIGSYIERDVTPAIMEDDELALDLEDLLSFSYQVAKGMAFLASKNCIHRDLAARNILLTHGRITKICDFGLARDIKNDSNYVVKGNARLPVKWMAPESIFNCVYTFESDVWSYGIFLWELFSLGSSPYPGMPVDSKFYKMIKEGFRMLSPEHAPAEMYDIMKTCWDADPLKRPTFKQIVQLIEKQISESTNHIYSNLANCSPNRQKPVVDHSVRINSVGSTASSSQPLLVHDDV

Turning to `COc1ccn2c(-c3cc(NCc4ccc(-c5cocn5)cc4)ncn3)cnc2c1` [A51, [6-(7-methoxy-imidazo[1,2-a]pyridin-3-yl)-pyrimidin-4-yl]-(4-oxazol-4-yl-benzyl)-amine], the IC50 on c-Kit(V654A) turned out to be 1.6 nM; in data set [1], 53 nM. Also, the efflux ratio at 2 h, 1 μM in data set [2] was less than 15.

For `Cn1cc(-c2ccc(CNc3cc(-c4cnc5cc(OCCCN6CCOCC6)ccn45)ncn3)cc2)cn1` [A74, [4-(1-methyl-1H-pyrazol-4-yl)-benzyl]-{6-[7-(3-morpholin-4-yl-propoxy)-imidazo[1,2-a]pyridin-3-yl]-pyrimidin-4-yl}-amine], the IC50 was 4.8 nM on c-Kit(V654A) and 49 nM in data set [1]. Moreover, the efflux ratio at 2 h, 1 μM in data set [2] was less than 15.

Turning to `CC(Nc1cc(-c2cnc3cc(OCCCN4CCC4)ccn23)ncn1)c1ccc(-c2cnn(C)c2)cc1` (stereo not drawn) [A249, {6-[7-(3-azetidin-1-yl-propoxy)-imidazo[1,2-a]pyridin-3-yl]-pyrimidin-4-yl}-{1-[4-(1-methyl-1H-pyrazol-4-yl)-phenyl]-ethyl}-amine], the IC50 at c-Kit(V654A) is 87 nM; in data set [1] it was 440 nM. For the same molecule, the efflux ratio at 2 h, 1 μM in data set [2] is more than 50.

On to `Cn1cc(-c2ccc(CNc3cc(-c4cnc5cc(OCCN6Cc7ccncc7C6)ccn45)ncn3)cc2)cn1` [A195, (6-{7-[2-(1,3-dihydro-pyrrolo[3,4-c]pyridin-2-yl)-ethoxy]-imidazo[1,2-a]pyridin-3-yl}-pyrimidin-4-yl)-[4-(1-methyl-1H-pyrazol-4-yl)-benzyl]-amine], for which the figures for the IC50 (on c-Kit(V654A); in data set [1]) were 9.7 nM and 72 nM, respectively. Besides, the efflux ratio at 2 h, 1 μM in data set [2] is less than 15.

Take `Cc1nc2n(n1)CCN(CCOc1ccn3c(-c4cc(NCc5ccc(-c6cnn(C)c6)cc5)ncn4)cnc3c1)C2` [A204, (6-{7-[2-(2-methyl-5,6-dihydro-8H-[1,2,4]triazolo[1,5-a]pyrazin-7-yl)-ethoxy]-imidazo[1,2-a]pyridin-3-yl}-pyrimidin-4-yl)-[4-(1-methyl-1H-pyrazol-4-yl)-benzyl]-amine]: the IC50 on c-Kit(V654A) was 12 nM; in data set [1], 170 nM. Besides, the efflux ratio at 2 h, 1 μM in data set [2] fell in the range of 15 to 50.

Take `Cn1cc(-c2ccc(CNc3cc(-c4cnc5cc(OCCN6CC(C)(C#N)C6)ccn45)ncn3)cc2)cn1` [A206]: the IC50 at c-Kit(V654A) stood at 7.1 nM; in data set [1], 100 nM. Further, the efflux ratio at 2 h, 1 μM in data set [2] was less than 15.

Consider `Cn1cc(-c2ccc(CNc3cc(-c4cnc5cc(OCCN6CCO[C@@H]7COCC[C@@H]76)ccn45)ncn3)cc2)cn1` [A211, (6-{7-[(4aS,8aS)-2-(hexahydro-pyrano[3,4-b][1,4]oxazin-1-yl)-ethoxy]-imidazo[1,2-a]pyridin-3-yl}-pyrimidin-4-yl)-[4-(1-methyl-1H-pyrazol-4-yl)-benzyl]-amine], for which the IC50 amounted to 10 nM at c-Kit(V654A) and 85 nM in data set [1]. Further, in data set [2], the efflux ratio at 2 h, 1 μM was less than 15.

On to `Cc1nc(-c2ccc(CNc3cc(-c4cnc5cc(OCCO)ccn45)ncn3)cc2)co1` [A236, 2-(3-{6-[4-(2-methyl-oxazol-4-yl)-benzylamino]-pyrimidin-4-yl}-imidazo[1,2-a]pyridin-7-yloxy)-ethanol], for which the IC50 at c-Kit(V654A) was 1.5 nM; in data set [1], 74 nM. In data set [2], the efflux ratio at 2 h, 1 μM was less than 15.

`OCCOc1ccn2c(-c3cc(NCc4ccc(-c5cocn5)cc4)ncn3)cnc2c1` [A251, 2-{3-[6-(4-oxazol-4-yl-benzylamino)-pyrimidin-4-yl]-imidazo[1,2-a]pyridin-7-yloxy}-ethanol]: the results for the IC50 (on c-Kit(V654A); in data set [1]) were 2 nM and 44 nM, respectively. The efflux ratio at 2 h, 1 μM in data set [2] is less than 15.

For `Cn1cc(-c2ccc(CNc3cc(-c4cnc5cc(OCC6CN(C7COC7)C6)ccn45)ncn3)cc2)cn1` [A183, N-{[4-(1-methyl-1H-pyrazol-4-yl)phenyl]methyl}-6-(7-{[1-(oxetan-3-yl)azetidin-3-yl]methoxy}imidazo[1,2-a]pyridin-3-yl)pyrimidin-4-amine], the IC50 at c-Kit(V654A) amounted to 7.7 nM; in data set [1], 27 nM. The efflux ratio at 2 h, 1 μM in data set [2] is less than 15.

As for `Cn1cc(-c2ccc(CNc3cc(-c4cnc5cc(OCCN6CC7(COC7)C6)ccn45)ncn3)cc2)cn1` [A114, [4-(1-methyl-1H-pyrazol-4-yl)-benzyl]-(6-{7-[2-(2-oxa-6-aza-spiro[3.3]hept-6-yl)-ethoxy]-imidazo[1,2-a]pyridin-3-yl}-pyrimidin-4-yl)-amine], the values for the IC50 (at c-Kit(V654A); in data set [1]) were 9.4 nM and 86 nM, respectively. Further, the efflux ratio at 2 h, 1 μM in data set [2] was 15 to 50.

Turning to `Cn1cc(-c2ccc(CNc3cc(-c4cnc5cc(-c6cnn(C)c6)ccn45)ncn3)cc2)cn1` [A226, 6-[7-(1-methyl-1H-pyrazol-4-yl)imidazo[1,2-a]pyridin-3-yl]-N-{[4-(1-methyl-1H-pyrazol-4-yl)phenyl]methyl}pyrimidin-4-amine], the figures for the IC50 (on c-Kit(V654A); in data set [1]) were 4.2 nM and 51 nM, respectively. For the same molecule, in data set [2], the efflux ratio at 2 h, 1 μM is less than 15.

`Cn1cc(-c2ccc(CNc3cc(-c4cnc5cc(OCCN6CCC(C)(F)CC6)ccn45)ncn3)cc2)cn1` [A196, (6-{7-[2-(4-fluoro-4-methyl-piperidin-1-yl)-ethoxy]-imidazo[1,2-a]pyridin-3-yl}-pyrimidin-4-yl)-[4-(1-methyl-1H-pyrazol-4-yl)-benzyl]-amine]: the IC50 worked out at 14 nM on c-Kit(V654A) and 140 nM in data set [1]. For the same molecule, the efflux ratio at 2 h, 1 μM in data set [2] is less than 15.

With `CN1CCN(CCOc2ccn3c(-c4cc(NCc5ccc(-c6cnn(C)c6)cc5)ncn4)cnc3c2)CCC1=O` [A219, 4-methyl-1-[2-(3-{6-[4-(1-methyl-1H-pyrazol-4-yl)-benzylamino]-pyrimidin-4-yl}-imidazo[1,2-a]pyridin-7-yloxy)-ethyl]-[1,4]diazepan-5-one], the IC50 stood at 11 nM at c-Kit(V654A) and 100 nM in data set [1]. In addition, in data set [2], the efflux ratio at 2 h, 1 μM lay within 15 to 50.

As to `Cn1cc(-c2ccc(CNc3cc(-c4cnc5cc(OCCCO)ccn45)ncn3)cc2)cn1` [A131, 3-(3-{6-[4-(1-methyl-1H-pyrazol-4-yl)-benzylamino]-pyrimidin-4-yl}-imidazo[1,2-a]pyridin-7-yloxy)-propan-1-ol], the values for the IC50 (at c-Kit(V654A); in data set [1]) were 7.5 nM and 69 nM, respectively. The efflux ratio at 2 h, 1 μM in data set [2] is less than 15.

On to `Cn1cc(-c2ccc(CNc3cc(-c4cnc5cc(OCCN6CCC(F)(F)C6)ccn45)ncn3)cc2)cn1` [A77, 6-{7-[2-(3,3-difluoropyrrolidin-1-yl)ethoxy]imidazo[1,2-a]pyridin-3-yl}-N-{[4-(1-methyl-1H-pyrazol-4-yl)phenyl]methyl}pyrimidin-4-amine], for which the values for the IC50 (at c-Kit(V654A); in data set [1]) were 14 nM and 40 nM, respectively. Further, the efflux ratio at 2 h, 1 μM in data set [2] is less than 15.

Consider `Cn1cc(-c2ccc(CNc3cc(-c4cnc5cc(OCC(C)(C)O)ccn45)ncn3)cc2)cn1` [A64, 2-methyl-1-(3-{6-[4-(1-methyl-1H-pyrazol-4-yl)-benzylamino]-pyrimidin-4-yl}-imidazo[1,2-a]pyridin-7-yloxy)-propan-2-ol], for which the IC50 was 6.7 nM on c-Kit(V654A) and 84 nM in data set [1]. For the same molecule, the efflux ratio at 2 h, 1 μM in data set [2] is less than 15.

Consider `CN1CC2CCC(C1)N2CCOc1ccn2c(-c3cc(NCc4ccc(-c5cnn(C)c5)cc4)ncn3)cnc2c1` [A198, (6-{7-[2-(3-methyl-3,8-diaza-bicyclo[3.2.1]oct-8-yl)-ethoxy]-imidazo[1,2-a]pyridin-3-yl}-pyrimidin-4-yl)-[4-(1-methyl-1H-pyrazol-4-yl)-benzyl]-amine], for which the results for the IC50 (on c-Kit(V654A); in data set [1]) were 10 nM and 120 nM, respectively. Also, in data set [2], the efflux ratio at 2 h, 1 μM lay in the range of 15 to 50.

Regarding `Cn1ncc(-c2ccc(CNc3cc(-c4cnc5cc(N6CCC(CCO)C6)ccn45)ncn3)cc2)n1` (stereo not drawn) [A179, 2-[1-(3-{6-[4-(2-methyl-2H-[1,2,3]triazol-4-yl)-benzylamino]-pyrimidin-4-yl}-imidazo[1,2-a]pyridin-7-yl)-pyrrolidin-3-yl]-ethanol], the figures for the IC50 (at c-Kit(V654A); in data set [1]) were 3.1 nM and 24 nM, respectively. Further, the efflux ratio at 2 h, 1 μM in data set [2] was more than 50.

In the case of `Cn1cc(-c2ccc(CNc3cc(-c4cnc5cc(OCCC6(N)COC6)ccn45)ncn3)cc2)cn1` [A233], the IC50 at c-Kit(V654A) worked out at 8.7 nM; in data set [1] it was 130 nM. Besides, the efflux ratio at 2 h, 1 μM in data set [2] is more than 50.

For `COc1ccn2c(-c3cc(NCc4ccc(-c5noc(C)n5)cc4)ncn3)cnc2c1` [A26, 6-{7-methoxyimidazo[1,2-a]pyridin-3-yl}-N-{[4-(5-methyl-1,2,4-oxadiazol-3-yl)phenyl]methyl}pyrimidin-4-amine], the values for the IC50 (on c-Kit(V654A); in data set [1]) were 8.6 nM and 130 nM, respectively. Besides, the efflux ratio at 2 h, 1 μM in data set [2] is less than 15.

Turning to `Cn1cc(-c2ccc(CNc3cc(-c4cnc5cc(OCCN6CCn7cccc7C6)ccn45)ncn3)cc2)cn1` [A218, (6-{7-[2-(3,4-dihydro-1H-pyrrolo[1,2-a]pyrazin-2-yl)-ethoxy]-imidazo[1,2-a]pyridin-3-yl}-pyrimidin-4-yl)-[4-(1-methyl-1H-pyrazol-4-yl)-benzyl]-amine], the IC50 on c-Kit(V654A) came out at 11 nM; in data set [1], 200 nM. Moreover, the efflux ratio at 2 h, 1 μM in data set [2] is less than 15.

As to `Cn1cc(-c2ccc(CNc3cc(-c4cnc5cc(OCCN6CCC(C)(C#N)CC6)ccn45)ncn3)cc2)cn1` [A222, 4-methyl-1-[2-(3-{6-[4-(1-methyl-1H-pyrazol-4-yl)-benzylamino]-pyrimidin-4-yl}-imidazo[1,2-a]pyridin-7-yloxy)-ethyl]-piperidine-4-carbonitrile], the results for the IC50 (at c-Kit(V654A); in data set [1]) were 17 nM and 93 nM, respectively. Further, the efflux ratio at 2 h, 1 μM in data set [2] was less than 15.

Values taken from US12655142B2 (Merck Patent GmbH, priority 2019, dated 2026).
